# Reference: US20160122320A1, “USEFUL COMBINATIONS OF MONOBACTAM ANTIBIOTICS WITH BETA-LACTAMASE INHIBITORS” (Basilea Pharmaceutica AG, priority 2005, published 2016)
# Where a name gives a salt, the structure may show the parent alone.
# How the values were obtained:
# Experiment in all cases: MIC, NCCLS broth microdilution
# Assay type in all cases: cell-based
# [1] = tested on: Acinetobacter sp. J2; conditions: for MIC of antibiotic at fixed inhibitor concentration (4 mg/L): Acinetobacter sp. J2, MIC of antibiotic compound 1 with the labelled bridged monobactam of formula II and clavulanate, 4 mg/L each
# [2] = tested on: Pseudomonas aeruginosa MK1184; conditions: for MIC of antibiotic at fixed inhibitor concentration (4 mg/L): MIC of antibiotic compound 1 with the labelled bridged monobactam of formula II and clavulanate, 4 mg/L each
# [3] = tested on: Serratia marcescens S6; conditions: for MIC of antibiotic at fixed inhibitor concentration (4 mg/L): MIC of antibiotic compound 1 with the labelled bridged monobactam of formula II and clavulanate, 4 mg/L each
# [4] = tested on: Enterobacter cloacae P99; conditions: for MIC of antibiotic at fixed inhibitor concentration (4 mg/L): MIC of antibiotic compound 1 with the labelled bridged monobactam of formula II and clavulanate, 4 mg/L each
# [5] = tested on: Stenotrophomonas malthophilia 1AC736; conditions: for MIC of antibiotic at fixed inhibitor concentration (4 mg/L): Stenotrophomonas malthophilia 1AC736, MIC of antibiotic compound 1 with the labelled bridged monobactam of formula II and clavulanate, 4 mg/L each
# [6] = tested on: Pseudomonas aeruginosa 1973E; conditions: for MIC of antibiotic at fixed inhibitor concentration (4 mg/L): MIC of antibiotic compound 1 with the labelled bridged monobactam of formula II and clavulanate, 4 mg/L each
# Outline: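 MIC read by eye as the lowest concentration giving no visible growth after overnight incubation (30° C. or 37° C.), following NCCLS M7-A5 microdilution with ≤1% final DMSO. For combinations, partner compounds (formula II, III-XIII) were fixed at 4 μg/mL each while formula I compounds were titrated.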
# [7] = tested on: Klebsiella pneumoniae CF104; conditions: for MIC of antibiotic at fixed inhibitor concentration (4 mg/L): MIC of antibiotic compound 1 with the labelled bridged monobactam of formula II and clavulanate, 4 mg/L each
SMILES,"MIC of antibiotic at fixed inhibitor concentration of 4 mg/L ([1]; Acinetobacter baumannii J2, with sulbactam) [µg/mL]",MIC of antibiotic at fixed inhibitor concentration of 4 mg/L ([2]; with sulbactam) [µg/mL],MIC of antibiotic at fixed inhibitor concentration of 4 mg/L ([3]; with sulbactam) [µg/mL],MIC of antibiotic at fixed inhibitor concentration of 4 mg/L ([4]; with sulbactam) [µg/mL],"MIC of antibiotic at fixed inhibitor concentration of 4 mg/L ([5]; Stenotrophomonas maltophilia 1AC736, with sulbactam) [µg/mL]",MIC of antibiotic at fixed inhibitor concentration of 4 mg/L ([6]; with sulbactam) [µg/mL],MIC of antibiotic at fixed inhibitor concentration of 4 mg/L ([7]; with sulbactam) [µg/mL],MIC of antibiotic at fixed inhibitor concentration (4 mg/L) [1] [µg/mL],MIC of antibiotic at fixed inhibitor concentration (4 mg/L) [2] [µg/mL],MIC of antibiotic at fixed inhibitor concentration (4 mg/L) [3] [µg/mL],MIC of antibiotic at fixed inhibitor concentration (4 mg/L) [4] [µg/mL],MIC of antibiotic at fixed inhibitor concentration (4 mg/L) [5] [µg/mL],MIC of antibiotic at fixed inhibitor concentration (4 mg/L) [6] [µg/mL],MIC of antibiotic at fixed inhibitor concentration (4 mg/L) [7] [µg/mL]
"CC1(C)S[C@@H]2[C@H](NC(=O)[C@H](N)c3ccccc3)C(=O)N2[C@H]1C(=O)O [Ampicillin, ampicillin, reference compound]",32,>32,>32,>32,32,>32,>32,–,–,–,–,–,–,–
O=C(CSc1nnnn1-c1ccccc1)N1CC[C@@H]2[C@H]1C(=O)N2S(=O)(=O)[O-].[Na+] [Compound 201],–,–,–,–,–,–,–,4,32,2,32,0.125,8,>32
"O=C(Nc1cccc(CO)c1)N1CC[C@@H]2[C@H]1C(=O)N2S(=O)(=O)[O-].[Na+] [Compound 321, Sodium(1S,5R)-2-{N-[3-(hydroxymethyl)phenyl]carbamoyl}-7-oxo-2,6-diazabicyclo[3.2.0]heptane-6-sulfonate]",–,–,–,–,–,–,–,16,>32,0.25,>32,0.125,4,1
"COC(=O)c1ccc[n+](CC(=O)N2CC[C@@H]3[C@H]2C(=O)N3S(=O)(=O)[O-])c1 [Compound 116, (1S,5R)-2-{2-[3-(methoxycarbonyl)pyridinium]acetyl}-7-oxo-2,6-diazabicyclo[3.2.0]heptane-6-sulfonate, inner salt]",–,–,–,–,–,–,–,16,8,0.25,32,0.125,16,0.5
"NC(=O)c1cc[n+](CC(=O)N2CC[C@@H]3[C@H]2C(=O)N3S(=O)(=O)[O-])cc1C(N)=O [Compound 110, (1S,5R)-2-[2-(3,4-dicarbamoylpyridinium)acetyl]-7-oxo-2,6-diazabicyclo[3.2.0]heptane-6-sulfonate, inner salt]",–,–,–,–,–,–,–,2,32,0.25,>32,0.125,4,0.125
NC(=O)Nc1ccc(NC(=O)N2CC[C@@H]3[C@H]2C(=O)N3S(=O)(=O)[O-])cc1.[Na+] [Compound 315],–,–,–,–,–,–,–,4,>32,0.25,8,0.125,4,1
